# Experimental data taken from article PMC9964390, “Design, Synthesis and Phenotypic Profiling of Simplified Gedatolisib Analogues” (Pharmaceuticals, 2023).
# Test system: PI3K activation and phosphorylation in MOLT-4 cell line
# Assay: Muse PI3K Activation Dual Detection Kit
# Format: cell-based, human
# Conditions: MOLT-4, concentration 10 times lower than its CC50
# Method: The methodology evaluates the activation and phosphorylation of PI3K and was performed from the labelling with the Guava Muse Luminex® PI3K Activation Dual Detection Kit (catalog n^o. MCH200103, Luminex) containing the anti-AKT/PKB-PECy5 antibody to measure total PI3K and the anti-phospho-AKT (Ser473)-Alexa Fluor® 555 antibody for measurement of activated PI3K.
# Following 48 h of incubation in an incubator at 37 °C with 5% CO2, 1 mL of the cell solution was transferred to an Eppendorf tube, washed with PBS and centrifuged at 300× g for 5 min. The supernatant was discarded, and the pellet formed was resuspended in 500 µL of PBS. The samples were again centrifuged at 300× g for 5 min and the supernatant discarded.
# Then the cell solutions were resuspended in 200 µL of assay buffer (Part no. CS202124), followed by the addition of 200 µL of fixation buffer (Part n^o. CS202122), ending up with a total volume of 400 µL per sample. The samples were incubated for 5 min on ice and centrifuged at 300× g for 5 min and the supernatant discarded.
# Cells were permeabilized by adding 200 µL of ice-cold permeabilization buffer (Part n^o. CS202125) and then incubated on ice for 5 min and centrifuged at 300× g for 5 min, and the supernatant was discarded. The formed pellets were resuspended in 450 µL of assay buffer and vortexed at medium speed. In total, 90 µL of the solution from each sample was aliquoted into a new tube, and 10 µL of the cocktail solution containing Anti-phospho-Akt (Ser473), Alexa Fluor®555 and Anti-Akt/PKB, Pecy5 was added. The samples were homogenised and incubated for 30 min in the dark at room temperature.
# After the incubation step, 100 µL of assay buffer was added per sample and centrifuged at 300× g for 5 min, and the supernatant was discarded. The formed pellets were resuspended in 200 µL of assay buffer and vortexed, and the samples were read in Guava Muse Luminex®. Data from three independent experiments performed in duplicate were analysed in the Prism6 program to determine the percentage of cells expressing activated and inactivated PI3K.
compound,measurement,value
"c1ccc(N2CCN(c3nc(N4CCCNCC4)nc(N4CCOCC4)n3)CC2)cc1 [5f, 4-(4-(1,4-Diazepan-1-yl)-6-(4-phenylpiperazin-1-yl)-1,3,5-triazin-2-yl)morpholine]",reduction of PI3K-mediated phosphorylation,79%
